In ChEMBL document CHEMBL4414609, “High-Affinity Alkynyl Bisubstrate Inhibitors of Nicotinamide N-Methyltransferase (NNMT)” (J Med Chem, 2019):

Key:
[1] = molecular target: T1, PNMT (phenylethanolamine N-methyltransferase) (Homo sapiens, UniProt P11086); test: Inhibition of human PNMT expressed in Escherichia coli at 10 uM assessed as reduction in SAH level using DL-normetanephrine as substrate in presence of SAM incubated for 45 mins by LC-MS/MS analysis relative to control; conditions: recombinant human PNMT expressed in Escherichia coli, probe DL-normetanephrine
T1 sequence (P11086 whole entry): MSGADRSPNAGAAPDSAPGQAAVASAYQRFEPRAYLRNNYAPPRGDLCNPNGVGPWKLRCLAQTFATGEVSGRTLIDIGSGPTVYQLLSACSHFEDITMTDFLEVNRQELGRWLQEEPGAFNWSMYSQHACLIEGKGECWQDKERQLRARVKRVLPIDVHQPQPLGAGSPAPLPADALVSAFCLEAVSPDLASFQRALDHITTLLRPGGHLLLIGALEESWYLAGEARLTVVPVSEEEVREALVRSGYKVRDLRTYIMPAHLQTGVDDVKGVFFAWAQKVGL

[2] = molecular target: T2, GNMT (glycine N-methyltransferase) (Homo sapiens, UniProt Q14749); test: Inhibition of human GNMT expressed in Escherichia coli at 1 uM assessed as reduction in SAH level using glycine as substrate in presence of SAM incubated for 30 mins by LC-MS/MS analysis relative to control; conditions: recombinant human GNMT expressed in Escherichia coli, probe glycine
T2 sequence (Q14749 whole entry): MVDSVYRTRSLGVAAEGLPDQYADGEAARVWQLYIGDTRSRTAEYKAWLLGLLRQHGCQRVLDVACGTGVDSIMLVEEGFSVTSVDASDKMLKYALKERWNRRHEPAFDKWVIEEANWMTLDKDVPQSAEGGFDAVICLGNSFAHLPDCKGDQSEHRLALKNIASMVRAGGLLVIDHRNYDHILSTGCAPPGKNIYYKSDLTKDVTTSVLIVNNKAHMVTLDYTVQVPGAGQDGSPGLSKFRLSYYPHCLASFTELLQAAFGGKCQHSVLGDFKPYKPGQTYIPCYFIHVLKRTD

[3] = molecular target: HNMT (histamine N-methyltransferase) (Homo sapiens, UniProt P50135); test: Inhibition of human HNMT expressed in Escherichia coli at 10 uM assessed as reduction in SAH level using histamine as substrate in presence of SAM incubated for 15 mins by LC-MS/MS analysis relative to control; conditions: recombinant human HNMT expressed in Escherichia coli, probe histamine
[4] = molecular target: INMT (indolethylamine N-methyltransferase) (Homo sapiens, UniProt O95050); test: Inhibition of wild type human INMT expressed in Escherichia coli at 10 uM using tryptamine as substrate in presence of SAM incubated for 30 mins by MTase-Glo assay relative to control; conditions: probe tryptamine
[5] = molecular target: T2, GNMT (glycine N-methyltransferase); test: Inhibition of human GNMT expressed in Escherichia coli at 10 uM assessed as reduction in SAH level using glycine as substrate in presence of SAM incubated for 30 mins by LC-MS/MS analysis relative to control; conditions: recombinant human GNMT expressed in Escherichia coli, probe glycine
[6] = molecular target: Histone-lysine N-methyltransferase, H3 lysine-79 specific (Homo sapiens, UniProt Q8TEK3); test: Inhibition of human DOT1L expressed in Escherichia coli assessed as reduction in methylated polynucleosome level using polynucleosome as substrate in presence of [3H] SAM incubated for 15 mins by scintillation counting
[7] = molecular target: T3, Histone-lysine N-methyltransferase EHMT1 (Homo sapiens, UniProt Q9H9B1); test: Inhibition of human EHMT1 expressed in Escherichia coli assessed as reduction in methylated histone H3 full length using histone H3 full length as substrate in presence of [3H] SAM incubated for 120 mins by scintillation counting
T3 sequence (Q9H9B1 whole entry): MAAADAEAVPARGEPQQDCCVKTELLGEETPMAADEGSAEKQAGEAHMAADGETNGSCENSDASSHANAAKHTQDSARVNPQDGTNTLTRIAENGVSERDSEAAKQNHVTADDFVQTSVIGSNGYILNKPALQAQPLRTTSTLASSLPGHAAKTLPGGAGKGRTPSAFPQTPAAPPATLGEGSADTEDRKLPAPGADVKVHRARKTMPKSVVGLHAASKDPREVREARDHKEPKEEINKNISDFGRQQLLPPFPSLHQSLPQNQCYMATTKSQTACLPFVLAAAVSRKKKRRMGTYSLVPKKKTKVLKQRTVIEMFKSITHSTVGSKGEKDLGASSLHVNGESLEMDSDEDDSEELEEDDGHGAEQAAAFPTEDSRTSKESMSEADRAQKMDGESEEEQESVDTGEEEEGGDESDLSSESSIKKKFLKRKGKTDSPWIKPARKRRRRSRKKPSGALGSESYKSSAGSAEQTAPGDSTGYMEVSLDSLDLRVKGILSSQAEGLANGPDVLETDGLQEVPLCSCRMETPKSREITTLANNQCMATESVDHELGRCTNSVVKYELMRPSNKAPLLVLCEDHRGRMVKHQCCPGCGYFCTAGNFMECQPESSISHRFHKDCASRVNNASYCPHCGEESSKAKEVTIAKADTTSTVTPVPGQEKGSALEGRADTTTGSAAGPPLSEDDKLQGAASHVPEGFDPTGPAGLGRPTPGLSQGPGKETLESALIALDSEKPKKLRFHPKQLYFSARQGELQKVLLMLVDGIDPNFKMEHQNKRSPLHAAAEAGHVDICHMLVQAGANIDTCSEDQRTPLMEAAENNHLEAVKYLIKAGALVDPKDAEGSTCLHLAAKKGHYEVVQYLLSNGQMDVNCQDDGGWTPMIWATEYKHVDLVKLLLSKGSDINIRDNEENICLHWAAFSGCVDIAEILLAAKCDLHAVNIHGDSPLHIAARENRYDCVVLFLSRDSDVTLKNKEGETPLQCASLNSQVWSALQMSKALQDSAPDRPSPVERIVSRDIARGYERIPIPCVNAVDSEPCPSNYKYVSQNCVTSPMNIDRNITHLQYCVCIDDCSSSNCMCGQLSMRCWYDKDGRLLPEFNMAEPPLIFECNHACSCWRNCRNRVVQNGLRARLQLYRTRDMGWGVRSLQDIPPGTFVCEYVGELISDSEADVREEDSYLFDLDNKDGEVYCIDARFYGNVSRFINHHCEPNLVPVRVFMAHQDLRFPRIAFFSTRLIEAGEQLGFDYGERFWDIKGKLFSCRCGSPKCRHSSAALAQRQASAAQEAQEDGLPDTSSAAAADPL

Sequence of INMT (indolethylamine N-methyltransferase) (O95050 whole entry): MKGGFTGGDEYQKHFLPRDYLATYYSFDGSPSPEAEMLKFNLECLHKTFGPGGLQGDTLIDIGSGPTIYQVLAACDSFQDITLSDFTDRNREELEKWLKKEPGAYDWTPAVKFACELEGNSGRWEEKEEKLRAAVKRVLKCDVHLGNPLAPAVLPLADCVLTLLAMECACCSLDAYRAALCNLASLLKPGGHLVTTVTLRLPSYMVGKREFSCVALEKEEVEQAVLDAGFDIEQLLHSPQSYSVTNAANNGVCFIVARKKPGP
Sequence of Histone-lysine N-methyltransferase, H3 lysine-79 specific (Q8TEK3 whole entry): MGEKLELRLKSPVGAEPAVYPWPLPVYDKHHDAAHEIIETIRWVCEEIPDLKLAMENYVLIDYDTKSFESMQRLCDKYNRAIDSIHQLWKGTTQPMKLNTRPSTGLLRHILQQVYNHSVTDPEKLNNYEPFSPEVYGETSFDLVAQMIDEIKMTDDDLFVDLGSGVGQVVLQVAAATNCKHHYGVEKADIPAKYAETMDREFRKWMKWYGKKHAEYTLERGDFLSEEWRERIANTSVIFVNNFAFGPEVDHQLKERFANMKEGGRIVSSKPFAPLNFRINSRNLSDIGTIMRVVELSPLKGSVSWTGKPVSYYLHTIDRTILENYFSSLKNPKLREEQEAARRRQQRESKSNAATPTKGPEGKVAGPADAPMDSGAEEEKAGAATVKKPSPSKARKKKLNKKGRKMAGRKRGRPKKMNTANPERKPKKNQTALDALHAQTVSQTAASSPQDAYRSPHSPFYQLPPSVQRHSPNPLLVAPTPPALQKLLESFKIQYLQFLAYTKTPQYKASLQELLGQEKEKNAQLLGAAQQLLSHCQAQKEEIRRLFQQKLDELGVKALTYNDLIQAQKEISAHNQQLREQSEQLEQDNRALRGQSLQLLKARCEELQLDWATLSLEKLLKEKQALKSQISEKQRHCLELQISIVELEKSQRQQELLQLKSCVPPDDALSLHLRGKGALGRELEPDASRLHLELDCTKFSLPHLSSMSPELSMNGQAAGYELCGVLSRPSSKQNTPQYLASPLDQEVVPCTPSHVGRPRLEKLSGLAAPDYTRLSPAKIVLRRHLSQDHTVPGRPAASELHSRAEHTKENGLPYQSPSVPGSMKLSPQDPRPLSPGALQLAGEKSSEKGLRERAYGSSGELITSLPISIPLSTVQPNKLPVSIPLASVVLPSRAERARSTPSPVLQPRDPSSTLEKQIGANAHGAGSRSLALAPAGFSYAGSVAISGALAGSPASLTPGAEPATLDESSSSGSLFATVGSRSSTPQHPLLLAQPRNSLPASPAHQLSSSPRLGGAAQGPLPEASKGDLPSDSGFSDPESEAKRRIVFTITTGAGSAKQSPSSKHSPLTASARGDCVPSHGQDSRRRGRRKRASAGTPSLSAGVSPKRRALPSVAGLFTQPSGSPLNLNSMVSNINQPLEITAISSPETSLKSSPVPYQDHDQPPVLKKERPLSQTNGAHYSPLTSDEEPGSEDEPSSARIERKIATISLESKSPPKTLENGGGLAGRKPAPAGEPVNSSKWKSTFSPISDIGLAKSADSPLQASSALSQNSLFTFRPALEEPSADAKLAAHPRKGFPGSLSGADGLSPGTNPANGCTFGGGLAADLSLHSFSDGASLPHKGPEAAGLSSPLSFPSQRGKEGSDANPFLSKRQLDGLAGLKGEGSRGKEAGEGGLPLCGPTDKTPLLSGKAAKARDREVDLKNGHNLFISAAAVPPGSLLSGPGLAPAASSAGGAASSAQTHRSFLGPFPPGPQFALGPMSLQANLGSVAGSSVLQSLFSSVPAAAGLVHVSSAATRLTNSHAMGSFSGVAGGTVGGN
Sequence of HNMT (histamine N-methyltransferase) (P50135 whole entry): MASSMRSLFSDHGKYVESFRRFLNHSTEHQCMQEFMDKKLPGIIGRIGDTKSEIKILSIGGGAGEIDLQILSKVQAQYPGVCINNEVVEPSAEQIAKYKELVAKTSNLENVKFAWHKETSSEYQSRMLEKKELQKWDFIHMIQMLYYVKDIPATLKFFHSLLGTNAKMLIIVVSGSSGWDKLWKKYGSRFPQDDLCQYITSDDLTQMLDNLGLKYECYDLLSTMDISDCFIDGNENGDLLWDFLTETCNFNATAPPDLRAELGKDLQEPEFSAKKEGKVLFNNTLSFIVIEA

Question: For NC(=O)c1cccc(C#C[C@@H](CC[C@H](N)C(=O)O)C[C@H]2O[C@@H](n3cnc4c(N)ncnc43)[C@H](O)[C@@H]2O)c1, which inhibition at 0.75 h, 10 µM [1] is on record?
Answer: 26%

Question: And the inhibition at 0.5 h, 1 µM [2]?
Answer: 4%

Question: What about the inhibition at 0.25 h, 10 µM [3] of the same compound?
Answer: 2%

Question: What about the inhibition at 0.5 h, 10 µM [4] of the same compound?
Answer: 53%

Question: And the inhibition at 0.5 h, 10 µM [5]?
Answer: 23%

Question: And the IC50 [6]?
Answer: > 10 µM

Question: What about the IC50 [7] of the same compound?
Answer: > 10 µM
